Test results: US20240336572A1, “SUBSTITUTED INDAZOLE PROPIONIC ACID DERIVATIVE COMPOUNDS AND USES THEREOF” (Pfizer Inc., priority 2023, published 2024)

Experiments:
AMPK 111 = target: T1, AMPK 111 (Homo sapiens, UniProt Q13131+Q9Y478); assay: Biochemical profiling of AMPK activators by AMPK111 (HTRF/TR-FRET assay, SAMS peptide, PP2A dephosphorylation protection); details: for EC50: phosphorylated AMPK 111 (α1β1δ1 as printed), 11 point dilution, duplicate, 4-parameter fit; for Emax: phosphorylated AMPK 111, maximal activation
T1 construct: open reading frames encoding the full-length α1, β1 and δ1 subunits of human AMPK; made in house; host or cells: E. coli BL21-CodonPlus (DE3)-RIPL, pET-14b
T1 sequence (Q13131 whole entry): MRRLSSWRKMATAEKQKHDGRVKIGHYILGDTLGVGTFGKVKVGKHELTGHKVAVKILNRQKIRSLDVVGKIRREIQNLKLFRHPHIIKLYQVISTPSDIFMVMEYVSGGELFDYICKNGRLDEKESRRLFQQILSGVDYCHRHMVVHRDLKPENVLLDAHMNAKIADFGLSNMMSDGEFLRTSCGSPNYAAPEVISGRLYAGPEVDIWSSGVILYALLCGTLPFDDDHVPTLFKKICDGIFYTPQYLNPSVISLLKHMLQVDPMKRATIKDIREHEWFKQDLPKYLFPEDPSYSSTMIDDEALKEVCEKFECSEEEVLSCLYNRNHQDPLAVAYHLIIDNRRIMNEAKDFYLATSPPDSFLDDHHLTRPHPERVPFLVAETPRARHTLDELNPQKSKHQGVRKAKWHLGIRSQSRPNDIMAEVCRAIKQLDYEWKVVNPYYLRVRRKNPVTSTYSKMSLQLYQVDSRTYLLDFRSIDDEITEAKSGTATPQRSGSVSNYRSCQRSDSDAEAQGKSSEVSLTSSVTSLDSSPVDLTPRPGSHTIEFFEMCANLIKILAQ
T1 sequence (Q9Y478 whole entry): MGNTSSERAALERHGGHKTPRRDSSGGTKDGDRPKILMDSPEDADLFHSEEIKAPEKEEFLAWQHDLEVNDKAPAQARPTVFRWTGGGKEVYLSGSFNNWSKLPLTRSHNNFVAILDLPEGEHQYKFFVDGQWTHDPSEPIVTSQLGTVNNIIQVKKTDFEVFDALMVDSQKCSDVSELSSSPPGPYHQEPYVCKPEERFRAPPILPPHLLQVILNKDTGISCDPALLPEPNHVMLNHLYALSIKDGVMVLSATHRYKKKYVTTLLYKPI
T1 sequence (P54619 whole entry partner): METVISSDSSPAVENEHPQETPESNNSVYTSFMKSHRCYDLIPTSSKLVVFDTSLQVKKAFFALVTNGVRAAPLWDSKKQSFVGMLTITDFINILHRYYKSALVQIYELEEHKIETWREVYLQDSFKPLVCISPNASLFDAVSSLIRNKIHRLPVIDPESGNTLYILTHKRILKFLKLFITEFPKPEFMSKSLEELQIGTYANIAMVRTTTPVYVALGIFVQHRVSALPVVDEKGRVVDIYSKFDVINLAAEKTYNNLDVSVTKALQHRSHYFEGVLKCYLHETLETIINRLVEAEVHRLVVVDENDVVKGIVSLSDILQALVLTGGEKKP

AMPK 221 = target: T2, AMPK 221 (Homo sapiens, UniProt O43741+P54646); assay: Biochemical profiling of AMPK activators by AMPK221 (HTRF/TR-FRET assay, SAMS peptide, PP2A dephosphorylation protection); details: for EC50: phosphorylated AMPK 221 (α2β2δ1), 11 point dilution, duplicate, 4-parameter fit; for Emax: phosphorylated AMPK 221, maximal activation
T2 construct: open reading frames encoding the full-length α2, β2 and δ1 subunits of human AMPK; made in house; host or cells: E. coli BL21-CodonPlus (DE3)-RIPL, pET-14b
T2 sequence (P54646 whole entry): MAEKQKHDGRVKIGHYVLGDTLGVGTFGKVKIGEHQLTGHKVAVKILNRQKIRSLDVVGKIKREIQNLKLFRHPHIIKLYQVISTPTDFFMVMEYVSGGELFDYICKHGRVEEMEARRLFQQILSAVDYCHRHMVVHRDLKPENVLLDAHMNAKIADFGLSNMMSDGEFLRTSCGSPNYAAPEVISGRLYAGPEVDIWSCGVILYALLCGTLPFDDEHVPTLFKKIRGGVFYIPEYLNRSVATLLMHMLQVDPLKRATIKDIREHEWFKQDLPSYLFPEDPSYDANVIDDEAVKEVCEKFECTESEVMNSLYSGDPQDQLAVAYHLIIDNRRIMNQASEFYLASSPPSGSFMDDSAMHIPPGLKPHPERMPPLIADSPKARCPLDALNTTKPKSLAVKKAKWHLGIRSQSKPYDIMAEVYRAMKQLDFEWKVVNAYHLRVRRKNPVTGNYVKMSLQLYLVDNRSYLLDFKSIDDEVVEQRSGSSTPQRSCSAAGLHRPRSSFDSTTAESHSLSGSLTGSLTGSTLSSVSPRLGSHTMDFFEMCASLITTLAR
T2 sequence (O43741 whole entry): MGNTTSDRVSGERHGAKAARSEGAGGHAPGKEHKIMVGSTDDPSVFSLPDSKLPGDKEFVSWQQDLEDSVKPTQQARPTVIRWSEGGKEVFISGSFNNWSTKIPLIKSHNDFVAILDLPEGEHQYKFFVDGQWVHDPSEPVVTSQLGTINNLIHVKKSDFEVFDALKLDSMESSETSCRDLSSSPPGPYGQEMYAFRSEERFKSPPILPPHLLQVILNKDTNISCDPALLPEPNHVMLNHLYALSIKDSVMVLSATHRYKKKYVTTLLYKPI
T2 sequence (P54619 whole entry partner): as the sequence (P54619 whole entry partner) above

[1] = Metabolite profile in liver microsomes, hepatocytes, recombinant human P450 and UGT enzymes, and animal plasma; format: in vitro ADME; details: liver microsomes and hepatocytes (mouse, rat, rabbit, dog, monkey, human)
Method: The metabolite profile of Example 1 is evaluated in liver microsomes and hepatocytes (mouse, rat, rabbit, dog, monkey, and human), recombinant human cytochrome P450 enzymes, recombinant human UGT enzymes, and plasma from animals (mouse, rat, and dog).

SMILES	EC50 (AMPK 111)	Emax (AMPK 111)	EC50 (AMPK 221)	Emax (AMPK 221)	metabolite profile [1]
O=C(O)CCc1n[nH]c2cc(Cl)c(-c3ccc(-c4ccccc4O)cc3)cc12 [Example 1, 3-(6-Chloro-5-(2′-hydroxy-[1,1′-biphenyl]-4-yl)-1H-indazol-3-yl)propanoic acid]	47 nM	75%	88 nM	57%	oxidation and glucuronidation
Cc1cscc1-c1ccc(-c2cc3c(CCC(=O)O)n[nH]c3cc2Cl)cc1 [Example 60, 3-(6-chloro-5-(4-(4-methylthiophen-3-yl)phenyl)-1H-indazol-3-yl)propanoic acid]	241 nM	53%	532 nM	21%	
NC(=O)COc1ccc(-c2ccc(-c3cc4c(CCC(=O)O)n[nH]c4cc3Cl)cc2)cc1 [Example 72, 3-(5-(4′-(2-amino-2-oxoethoxy)-[1,1′-biphenyl]-4-yl)-6-chloro-1H-indazol-3-yl)propanoic acid]	99 nM	103%	1830 nM	114%	
O=C(O)CCc1c[nH]c2cc(Cl)c(-c3ccc(-c4ccccc4O)cc3)cc12 [Example 4, 3-(6-Chloro-5-(2′-hydroxy-[1,1′-biphenyl]-4-yl)-1H-indol-3-yl)propanoic acid]	62 nM	74%	665 nM	34%	
Cc1cccc(O)c1-c1ccc(-c2cc3c(CCC(=O)O)n[nH]c3cc2Cl)cc1 [Example 15, 3-(6-chloro-5-(2′-hydroxy-6′-methyl-[1,1′-biphenyl]-4-yl)-1H-indazol-3-yl)propanoic acid]	35 nM	75%	76 nM	52%	
NC(=O)c1ccc(-c2ccc(-c3cc4c(CCC(=O)O)n[nH]c4cc3Cl)cc2)c(O)c1 [Example 6, 3-(5-(4′-Carbamoyl-2′-hydroxy-[1,1′-biphenyl]-4-yl)-6-chloro-1H-indazol-3-yl)propanoic acid]	6 nM	64%	4 nM	53%	
NC(=O)CSc1ccc(-c2ccc(-c3cc4c(CCC(=O)O)n[nH]c4cc3Cl)cc2)cc1 [Example 17, 3-(5-(4′-((2-amino-2-oxoethyl)thio)-[1,1′-biphenyl]-4-yl)-6-chloro-1H-indazol-3-yl)propanoic acid]	34 nM	80%	83 nM	49%	
O=C(O)CCc1n[nH]c2cc(Cl)c(-c3ccc(-c4ccncc4O)cc3)cc12 [Example 7, 3-(6-Chloro-5-(4-(3-hydroxypyridin-4-yl)phenyl)-1H-indazol-3-yl)propanoic acid]	90 nM	71%	359 nM	57%	
O=C(O)CCc1n[nH]c2cc(Cl)c(-c3ccc(-c4cccc(F)c4O)cc3)cc12 [Example 22, 3-(6-chloro-5-(3′-fluoro-2′-hydroxy-[1,1′-biphenyl]-4-yl)-1H-indazol-3-yl)propanoic acid]	111 nM	74%	100 nM	59%	
O=C(O)CCc1n[nH]c2cc(Cl)c(-c3ccc(-c4ccc(C(=O)O)cc4O)cc3)cc12 [Example 36, 4′-(3-(2-carboxyethyl)-6-chloro-1H-indazol-5-yl)-2-hydroxy-[1,1′-biphenyl]-4-carboxylic acid]	45 nM	68%	200 nM	49%	
CS(=O)(=O)Nc1ccc(-c2ccc(-c3cc4c(CCC(=O)O)n[nH]c4cc3Cl)cc2)cc1 [Example 32, 3-(6-chloro-5-(4′-(methylsulfonamido)-[1,1′-biphenyl]-4-yl)-1H-indazol-3-yl)propanoic acid]	136 nM	71%	198 nM	41%	
O=C(O)CCc1n[nH]c2cc(Cl)c(-c3ccc(-c4cccc(CO)c4)cc3)cc12 [Example 61, 3-(6-chloro-5-(3′-(hydroxymethyl)-[1,1′-biphenyl]-4-yl)-1H-indazol-3-yl)propanoic acid]	692 nM	55%	645 nM	34%	
N#Cc1cccc(-c2ccc(-c3cc4c(CCC(=O)O)n[nH]c4cc3Cl)cc2)c1O [Example 55, 3-(6-chloro-5-(3′-cyano-2′-hydroxy-[1,1′-biphenyl]-4-yl)-1H-indazol-3-yl)propanoic acid]	208 nM	45%	389 nM	38%	
NS(=O)(=O)c1ccc(-c2ccc(-c3cc4c(CCC(=O)O)n[nH]c4cc3Cl)cc2)c(O)c1 [Example 9, 3-(6-chloro-5-(2′-hydroxy-4′-sulfamoyl-[1,1′-biphenyl]-4-yl)-1H-indazol-3-yl)propanoic acid]	11 nM	90%	41 nM	68%	
CN(C)C(=O)c1ccc(-c2ccc(-c3cc4c(CCC(=O)O)n[nH]c4cc3Cl)cc2)cc1 [Example 29, 3-(6-chloro-5-(4′-(dimethylcarbamoyl)-[1,1′-biphenyl]-4-yl)-1H-indazol-3-yl)propanoic acid]	46 nM	72%	162 nM	63%	
O=C(O)CCc1n[nH]c2cc(Cl)c(-c3ccc(-c4ccc(OCCN5CCOCC5)cc4)cc3)cc12 [Example 38, 3-(6-chloro-5-(4′-(2-morpholinoethoxy)-[1,1′-biphenyl]-4-yl)-1H-indazol-3-yl)propanoic acid]	95 nM	67%	209 nM	64%	
NC(=O)c1ccc(-c2ccc(-c3cc4c(CCC(=O)O)n[nH]c4cc3Cl)cc2)cc1 [Example 5, 3-(5-(4′-Carbamoyl-[1,1′-biphenyl]-4-yl)-6-chloro-1H-indazol-3-yl)propanoic acid]	89 nM	59%	37 nM	62%	
O=C(O)CCc1n[nH]c2cc(Cl)c(-c3ccc(-c4cccc(OC(F)F)c4O)cc3)cc12 [Example 57, 3-(6-chloro-5-(3′-(difluoromethoxy)-2′-hydroxy-[1,1′-biphenyl]-4-yl)-1H-indazol-3-yl)propanoic acid]	103 nM	75%	426 nM	63%	
